The mortality is the share of the test organisms that died.

The text below walks through data of US9795139B2, “Molecules having pesticidal utility, and intermediates, compositions, and processes, related thereto” (priority 2015, dated 2017).

What all share (format): in vivo
Data set [1] deals with Cabbage Looper (Trichoplusia ni, TRIPNI). The data set can be described thus: Bioassay on Cabbage Looper (CL), 128-well diet tray assay. To be noted: 168 h, 50 μg/cm^2 on artificial diet, second instar larvae, 25° C., five to seven days, average of eight wells, read-out: CL % Control (or Mortality) rating. The protocol:
(§1) Certain molecules disclosed in this document were tested against BAW and CL using procedures described in the following examples. In the reporting of the results, the “BAW & CL Rating Table” was used (See Table Section).
Bioassays on CL were conducted using a 128-well diet tray assay. one to five second instar CL larvae were placed in each well (3 mL) of the diet tray that had been previously filled with 1 mL of artificial diet to which 50 μg/cm^2 of the test molecule (dissolved in 50 μL of 90:10 acetone-water mixture) had been applied (to each of eight wells) and then allowed to dry. Trays were covered with a clear self-adhesive cover, vented to allow gas exchange, and held at 25° C., 14:10 light-dark for five to seven days. Percent mortality was recorded for the larvae in each well; activity in the eight wells was then averaged. The results are indicated in the table entitled “Table ABC: Biological Results” (See Table Section).

Data set [2] concerns Yellow Fever Mosquito (Aedes aegypti, AEDSAE). To be noted: about 1 day-old larvae, 96-well plate from 4000 ppm DMSO master, 3 days at room temperature. The protocol: Certain molecules disclosed in this document were tested against YFM using procedures described in the following paragraph. In the reporting of the results, the “GPA & YFM Rating Table” was used (See Table Section).
Master plates containing 400 μg of a molecule dissolved in 100 μL of dimethyl sulfoxide (DMSO) (equivalent to a 4000 ppm solution) are used. A master plate of assembled molecules contains 15 μL per well. To this plate, 135 μL of a 90:10 water/acetone mixture is added to each well. A robot is programmed to dispense 15 μL aspirations from the master plate into an empty 96-well shallow plate (“daughter” plate). There are 6 reps (“daughter” plates) created per master. The created “daughter” plates are then immediately infested with YFM larvae.
The day before plates are to be treated, mosquito eggs are placed in Millipore water containing liver powder to begin hatching (4 g. into 400 mL). After the “daughter” plates are created using the robot, they are infested with 220 μL of the liver powder/larval mosquito mixture (about 1 day-old larvae). After plates are infested with mosquito larvae, a non-evaporative lid is used to cover the plate to reduce drying. Plates are held at room temperature for 3 days prior to grading. After 3 days, each well is observed and scored based on mortality. The results are indicated in the table entitled “Table ABC: Biological Results” (See Table Section).

In data set [3] the test system is Beet Armyworm (Spodoptera exigua, LAPHEG). Nature of the data set: Bioassay on Beet Armyworm (BAW), 128-well diet tray assay. To be noted: 168 h, 50 μg/cm^2 on artificial diet, second instar larvae, 25° C., five to seven days, average of eight wells, read-out: BAW % Control (or Mortality) rating. The protocol: as §1
Bioassays on BAW were conducted using a 128-well diet tray assay. One to five second instar BAW larvae were placed in each well (3 mL) of the diet tray that had been previously filled with approximately 1.5 mL of artificial diet to which 50 μg/cm^2 of the test molecule (dissolved in 50 μL of 90:10 acetone-water mixture) had been applied (to each of eight wells) and then allowed to dry. Trays were covered with a clear self-adhesive cover, vented to allow gas exchange, and held at 25° C., 14:10 light-dark for five to seven days. Percent mortality was recorded for the larvae in each well; activity in the eight wells was then averaged. The results are indicated in the table entitled “Table ABC: Biological Results” (See Table Section).

For the molecule `O=C(NC1CC(F)(F)C1)c1cc(NC(=O)[C@H]2[C@H](c3ccc(C(F)(F)F)cc3)C2(Cl)Cl)ccc1Cl` (relative stereo) [Molecule F22, trans-2-Chloro-5-(2,2-dichloro-3-(4-(trifluoromethyl)phenyl)cyclopropanecarboxamido)-N-(3,3-difluorocyclobutyl)benzamide], the mortality at 50 µg/cm2 in data set [1] and in data set [3] was 50 to 100% in each case. Also, in data set [2], the “YFM % Control (or Mortality) rating” value is listed as “A (80-100)”.

Regarding `CN(C(=O)c1cc(NC(=O)[C@H]2[C@H](c3ccc(Cl)c(Cl)c3)C2(Cl)Cl)ccc1Cl)C1CC(F)(F)C1` (relative stereo) [Molecule F33, trans-2-Chloro-5-(2,2-dichloro-3-(3,4-dichlorophenyl)cyclopropanecarboxamido)-N-(3,3-difluorocyclobutyl)-N-methylbenzamide], the mortality at 50 µg/cm2 in data set [1] and in data set [3] was 50 to 100% in each case. In data set [2], the “YFM % Control (or Mortality) rating” value is “A (80-100)”.

On to `N#CC1CCC(NC(=O)c2cc(NC(=O)[C@H]3[C@H](c4cc(Cl)cc(Cl)c4)C3(Cl)Cl)ccc2Cl)C1` (relative stereo) [Molecule F35, trans-2-Chloro-N-(3-cyanocyclopentyl)-5-(2,2-dichloro-3-(3,5-dichlorophenyl)cyclopropanecarboxamido)benzamide], for which the mortality at 50 µg/cm2 in data set [1] and in data set [3] was 50 to 100% throughout. Also, the “YFM % Control (or Mortality) rating” value in data set [2] was “A (80-100)”.

For `N#CC1CCC(NC(=O)c2cc(NC(=O)[C@H]3[C@H](c4ccc(Cl)c(Cl)c4)C3(Cl)Cl)ccc2Cl)C1` (relative stereo) [Molecule F36, trans-2-Chloro-N-(3-cyanocyclopentyl)-5-(2,2-dichloro-3-(3,4-dichlorophenyl)cyclopropanecarboxamido)benzamide], the mortality at 50 µg/cm2 in data set [1] and in data set [3] was 50 to 100% in each case. Moreover, in data set [2], the “YFM % Control (or Mortality) rating” value is listed as “B (More than 0-Less than 80)”.

In the case of `N#CC1CCC(NC(=O)c2cc(NC(=O)[C@H]3[C@H](c4cc(Cl)c(Cl)c(Cl)c4)C3(Cl)Cl)ccc2Cl)C1` (relative stereo) [Molecule F39, trans-2-Chloro-N-(3-cyanocyclopentyl)-5-(2,2-dichloro-3-(3,4,5-trichlorophenyl)cyclopropanecarboxamido)benzamide], the mortality at 50 µg/cm2 in data set [1] and in data set [3] was 50 to 100% in each case. The “YFM % Control (or Mortality) rating” value in data set [2] was “A (80-100)”.

Turning to `O=C(NC1CCC1)c1cc(NC(=O)[C@H]2[C@H](c3cc(Cl)cc(Cl)c3)C2(Cl)Cl)ccc1Cl` (relative stereo) [Molecule F40, trans-2-Chloro-N-cyclobutyl-5-(2,2-dichloro-3-(3,5-dichlorophenyl)cyclopropanecarboxamido)benzamide], the mortality at 50 µg/cm2 in data set [1] and in data set [3] was 50 to 100% each time. In addition, in data set [2], the “YFM % Control (or Mortality) rating” value was “A (80-100)”.

With `O=C(NC1CCC(F)(F)CC1)c1cc(NC(=O)[C@H]2[C@H](c3cc(Cl)cc(Cl)c3)C2(Cl)Cl)ccc1Cl` (relative stereo) [Molecule F43, trans-2-Chloro-5-(2,2-dichloro-3-(3,5-dichlorophenyl)cyclopropanecarboxamido)-N-(4,4-difluorocyclohexyl)benzamide], the mortality at 50 µg/cm2 in data set [1] and in data set [3] was 50 to 100% throughout. For the same molecule, in data set [2], the “YFM % Control (or Mortality) rating” value was “A (80-100)”.

For `O=C(NC1CCC(F)(F)CC1)c1cc(NC(=O)[C@H]2[C@H](c3ccc(Cl)c(Cl)c3)C2(Cl)Cl)ccc1Cl` (relative stereo) [Molecule F44, trans-2-Chloro-5-(2,2-dichloro-3-(3,4-dichlorophenyl)cyclopropanecarboxamido)-N-(4,4-difluorocyclohexyl)benzamide], the mortality at 50 µg/cm2 in data set [1] and in data set [3] was 50 to 100% throughout. In addition, in data set [2], the “YFM % Control (or Mortality) rating” value is recorded as “A (80-100)”.

Take `O=C(NC1CCC(F)(F)CC1)c1cc(NC(=O)[C@H]2[C@H](c3cc(Cl)c(Cl)c(Cl)c3)C2(Cl)Cl)ccc1Cl` (relative stereo) [Molecule F45, trans-2-Chloro-5-(2,2-dichloro-3-(3,4,5-trichlorophenyl)cyclopropanecarboxamido)-N-(4,4-difluorocyclohexyl)benzamide]: the mortality at 50 µg/cm2 in data set [1] and in data set [3] was 50 to 100% each time. Moreover, the “YFM % Control (or Mortality) rating” value in data set [2] is “A (80-100)”.

For the molecule `Cc1cc(Cl)cc([C@H]2[C@H](C(=O)Nc3ccc(Cl)c(C(=O)NC4CC(F)(F)C4)c3)C2(Cl)Cl)c1` (relative stereo) [Molecule F46, trans-2-Chloro-5-(2,2-dichloro-3-(3-chloro-5-methylphenyl)cyclopropanecarboxamido)-N-(3,3-difluorocyclobutyl)benzamide], the mortality at 50 µg/cm2 in data set [1] and in data set [3] was 50 to 100% each time. In addition, the “YFM % Control (or Mortality) rating” value in data set [2] was “D (No activity noticed in this bioassay)”.

With `Cc1c(Cl)cc([C@H]2[C@H](C(=O)Nc3ccc(Cl)c(C(=O)NC4CC(F)(F)C4)c3)C2(Cl)Cl)cc1Cl` (relative stereo) [Molecule F48, trans-2-Chloro-5-(2,2-dichloro-3-(3,5-dichloro-4-methylphenyl)cyclopropanecarboxamido)-N-(3,3-difluorocyclobutyl)benzamide], the mortality at 50 µg/cm2 in data set [1] and in data set [3] was 50 to 100% in each case. In addition, the “YFM % Control (or Mortality) rating” value in data set [2] is recorded as “A (80-100)”.

For the molecule `N#CC1(NC(=O)c2cc(NC(=O)[C@H]3[C@H](c4ccc(Cl)c(F)c4)C3(Cl)Cl)ccc2Cl)CC1` (relative stereo) [PF2, trans-2-Chloro-N-(1-cyanocyclopropyl)-5-(2,2-dichloro-3-(4-chloro-3-fluorophenyl)cyclopropane-1-carboxamido)benzamide], the mortality at 50 µg/cm2 in data set [1] and in data set [3] was 50 to 100% each time.

In the case of `N#CC1(NC(=O)c2cc(NC(=O)[C@H]3[C@H](c4ccc(F)c(Cl)c4)C3(Cl)Cl)ccc2Cl)CC1` (relative stereo) [PF3, trans-2-Chloro-N-(1-cyanocyclopropyl)-5-(2,2-dichloro-3-(3-chloro-4-fluorophenyl)cyclopropane-1-carboxamido)benzamide], the mortality at 50 µg/cm2 in data set [1] and in data set [3] was 50 to 100% each time.

On to `CN(C(=O)c1cc(NC(=O)[C@H]2[C@H](c3cc(Cl)cc(Cl)c3)C2(Cl)Cl)ccc1Cl)C1(C#N)CC1` (relative stereo) [PF20, trans-2-Chloro-N-(1-cyanocyclopropyl)-5-(2,2-dichloro-3-(3,5-dichloro-phenyl)cyclopropane-1-carboxamido)-N-methylbenzamide], for which the mortality at 50 µg/cm2 in data set [1] and in data set [3] was 50 to 100% each time.

Turning to `O=C(NC1C[S+]([O-])C1)c1cc(NC(=O)C2C(c3cc(Cl)c(Cl)c(Cl)c3)C2(Cl)Cl)ccc1Cl` (single isomer, unassigned) [Molecule F56, trans-2-chloro-5-(2,2-dichloro-3-(3,4,5-trichlorophenyl)cyclopropanecarboxamido)-N-(1-oxidothietan-3-yl)benzamide], the mortality at 50 µg/cm2 in data set [1] and in data set [3] was 50 to 100% throughout.

Take `N#CC1(NC(=O)c2cc(NC(=O)[C@H]3[C@H](c4cc(Cl)cc(Cl)c4)C3(Cl)Cl)ccc2Cl)CC1` [Molecule F75, 2-Chloro-N-(1-cyanocyclopropyl)-5-((1R,3R)-2,2-dichloro-3-(3,5-dichloro-phenyl)cyclopropane-1-carboxamido)benzamide]: in data set [2], the “YFM % Control (or Mortality) rating” value is “A (80-100)”.
